The subject of data set [1] is P. falciparum blood stages. The experiment in a line: P. falciparum blood stage cultures in vitro. It is filed as cell-based, Plasmodium falciparum. To be noted: text b23, strain not given.
Data set [2] concerns P. yoelii EEF. The experiment in a line: P. yoelii liver-stage. It is filed as cell-based, Plasmodium yoelii. To be noted: for activity against EEFs (in words): P. yoelii liver assay; for Median parasite area: ±SD, DMSO control 160 to 180 μm^2, smallest size detected 9 μm^2; for IC50: Plasmodium yoelii, 48 h, read-out: P. yoelii EEF IC50; for efficacy when compound added 15 and 27 hours post-invasion: end-point 51 hpi, Fig. 2C.

The subject of data set [3] is P. berghei sporozoites. Put plainly: Rodent malaria model of causal prophylactic treatment. It is filed as in vivo, Plasmodium berghei. As to conditions: for blood stage parasitemia in later blood smear examinations / in vivo bioluminescence signal of developing parasite: GNF179 15 mg/kg, atovaquone 2.5 mg/kg, treated at 6 hpi, Fig. 2D.
The test system of data set [4] is Plasmodium berghei. To be noted: 100 mg/kg oral dose; cited from earlier work.
Data set [5] deals with Plasmodium berghei. Put plainly: P. berghei blood-stage mouse model, single oral dose. The format is in vivo. To be noted: for average survival times: mice infected with P. berghei, single oral dose at 100 mg/kg.
Data set [6] deals with P. falciparum W2 parasites. The experiment in a line: Blood-stage SYBR green assay, P. falciparum W2. The format is cell-based. As to conditions: Plasmodium falciparum, W2, read-out: Blood IC50.
The subject of data set [7] is HepG2-A16-CD81EGFP cells. Put plainly: HepG2-A16-CD81EGFP inhibition. It is filed as cell-based. As to conditions: Homo sapiens, HepG2, read-out: HepG2 inhibition IC50.
For data set [8] the following is noted: mouse, in vivo, po.
Data set [9] deals with strains having mutations making them resistant to atovaquone and pyrimethamine. Put plainly: Cross-resistance with strains resistant to liver-stage drugs. The format is cell-based. To be noted: Table S6.
Data set [10] relates to parasite protein biosynthesis. The experiment in a line: Parasite protein biosynthesis inhibition. It is filed as cell-based. As to conditions: Fig. S4.
For data set [11] the following is noted: mouse.
The mark [12] stands for this setting: 15 p.o. mg/kg, 1–3 hours prior to sporozoite injection.
The mark [13] stands for this setting: 30 p.o. mg/kg, 1–3 hours prior to sporozoite injection.
Where [14] appears, read: 5 p.o. mg/kg, 1–3 hours prior to sporozoite injection.
Where [15] appears, read: 15 p.o. mg/kg, six hours after infection.

Entries after “also recorded” stand apart in the source; their conditions may differ. Where two headings read alike, the source gives them in different places. Bounds are passed on as bounds.

Usually IC50 stands for the midpoint of a concentration-inhibition curve. By Cmax is commonly meant the maximum level reached in the sampled fluid or tissue.

As for `C[C@H]1Cc2c([nH]c3cc(Cl)c(F)cc23)[C@@]2(N1)C(=O)Nc1ccc(Cl)cc12` [NITD609], the “potency against P. falciparum blood stages” value in [1] was ~ 1 nM. Moreover, in data set [2], the “activity against EEFs (in words)” value is “inactive”. In addition, the “Average Survival (%)” value in [3] (setting [12]) and in data set [3] (setting [13]) was 0% throughout. Besides, the entries for the “Prepatent Period” value in [3] (setting [12]) and in data set [3] (setting [13]) were 4.5 days and 4.2 days, respectively. For the same compound, the “cure in a blood-stage animal model” value in data set [4] was “fully curative”.
`C[C@H]1[C@H](OC(=O)CCC(=O)O)O[C@@H]2O[C@@]3(C)CC[C@H]4[C@H](C)CC[C@@H]1[C@@]24OO3` [artesunate] displayed an average survival times in [5] of 7 days.
With `CCCCCCCCCCOc1cc2c(O)c(C(=O)OCC)cnc2cc1OCC` [Decoquinate], the Median parasite area was found to be 17.7±0.3 μm^2 in data set [2] (1 μM) and 18.8±4.7 μm^2 in [2] (10 μM). Further, the IC50 in [2] was 0.00016 ± 2e-05 µM; in data set [6], 0.00025 ± 6e-05 µM; in [7], greater than 10 µM.
For the compound `CCc1nc(N)nc(N)c1-c1ccc(Cl)cc1` [Pyrimethamine], the “efficacy when compound added 15 and 27 hours post-invasion” value (shortened to “efficacy”) in data set [2] (1 μM) is on record as “the parasites grew to normal size”. The figures for the Median parasite area in [2] (1 μM) and in data set [2] (10 μM) were 31.1±0.7 μm^2 and 29.6±2.0 μm^2, respectively. In addition, the “activity against EEFs (in words)” value in data set [2] is “confirmed as active”. The IC50 in data set [2] stood at 0.0024 ± 0.0016 µM; in data set [6], 0.015 ± 0.002 µM; in [7] it was 6.3 ± 3.3 µM.
In the case of `OC(c1cc(C(F)(F)F)nc2c(C(F)(F)F)cccc12)C1CCCCN1` (stereo not shown) [Mefloquine], the Median parasite area in data set [2] (1 μM) is given as 65.4±4.7 μm^2; in [2] (10 μM), less than 9 μm^2. Besides, the “activity against EEFs (in words)” value in [2] is on record as “marginal activity”. Further, the IC50 in data set [2] was 3.27 µM; in [6], 0.0095 ± 0.01 µM; in data set [7], 3.1 ± 0.6 µM.
Turning to `O=C1C(O)=C([C@H]2CC[C@H](c3ccc(Cl)cc3)CC2)C(=O)c2ccccc21` [Atovaquone], in [2] (1 μM), the “efficacy” value is reported as “remained active later in EEF development”. For the same compound, the figures for the Median parasite area in data set [2] (1 μM) and in [2] (10 μM) were 18.2±1.0 μm^2 and 18.6±1.0 μm^2, respectively. In addition, the “activity against EEFs (in words)” value in data set [2] was “confirmed as active”. Also, the results for the IC50 in data set [2], in [6] and in [7] were 0.0094 ± 0.015 µM, 0.0022 ± 0.0004 µM and 9.5 ± 2.5 µM, respectively. The “Average Survival (%)” value in data set [3] (2.5 p.o. mg/kg, 1–3 hours prior to sporozoite injection) was 100%; in [3] (2.5 p.o. mg/kg, six hours after infection), 100%. Moreover, in [3], the “blood stage parasitemia in later blood smear examinations” value is reported as “no blood stage parasitemia was detected”. The “in vivo bioluminescence signal of developing parasite” value in data set [3] is “No luminescence signal was detected”.
On to `CCN(CC)CCCC(C)Nc1ccnc2cc(Cl)ccc12` (stereo not shown) [Chloroquine], for which the average survival times in data set [5] came out at 12.5 days. For the same compound, the Median parasite area in data set [2] (1 μM) is on record as 65.4±9.5 μm^2; in data set [2] (10 μM) it was less than 9 μm^2. The IC50 stood at 1.65 µM in data set [2], 0.084 ± 0.003 µM in data set [6] and 1.6 ± 0.3 µM in [7].
With GNF179, the “potency against P. falciparum blood stages” value in data set [1] turned out to be 7 nM. In data set [8] (15 mg/kg), this compound had a peak concentration (Cmax) of 55 µM. In data set [8] (100 mg/kg), this compound registered a Cmax of 193 µM and a half-life in liver of 7 to 9 h. Also, in data set [5] (single 100 mg/kg oral dose), the “mouse survival prolonged by an average of” value is recorded as 19 days. In addition, the “reduction of Plasmodium berghei parasitemia levels” value in data set [5] (single 100 mg/kg oral dose, mice) came to 99.7%. In addition, the “efficacy” value in data set [2] (1 μM) is reported as “remained active later in EEF development”. Also, the cross-resistance entry in [9] is reported as “no cross-resistance”. Moreover, in [3] (setting [14]), the “Average Survival (%)” value is reported as 20% and the “Prepatent Period” value turned out to be 4.2 days. Further, the “Average Survival (%)” value in data set [3] (setting [12]) came out at 100%. In [3] (setting [15]), the “Average Survival (%)” value is 80% and the “Prepatent Period” value stood at 6.2 days. The “Average Survival (%)” value in data set [3] (20 p.o. mg/kg, 1–3 hours prior to sporozoite injection) came to 100%. Besides, in data set [3], the “blood stage parasitemia in later blood smear examinations” value is “no blood stage parasitemia was detected” and the “in vivo bioluminescence signal of developing parasite” value is reported as “No luminescence signal was detected”. In addition, in [10], the “inhibition of parasite protein biosynthesis” value was “does not rapidly inhibit parasite protein biosynthesis”. Also, in [11] (in vivo), the “clearance CL” value is 1.32 L/h/kg, the “clearance as share of hepatic blood flow in mice” value is listed as ~ 25%, the “residence time MRT” value was 9 h and the “steady-state volume of distribution Vss” value was determined as 11.8 L/kg. For the same compound, the “terminal half-life t1/2” value in data set [11] (in vivo) stood at 8.9 h. The “in vivo oral bioavailability” value in data set [11] (po) came out at 58%.
For `C[C@@H]1C[C@@H]([C@H](O)CC2CC(=O)NC(=O)C2)C(=O)[C@@H](C)C1` [Cycloheximide], the Median parasite area in data set [2] (1 μM) and in [2] (10 μM) was less than 9 μm^2 each time. For the same compound, the IC50 was found to be 0.366 ± 0.069 µM in data set [6] and 0.22 ± 0.1 µM in data set [7].
As to `COc1cc(NC(C)CCCN)c2ncccc2c1` (stereo not shown) [Primaquine], the Median parasite area in [2] (1 μM) is recorded as 56.8±15.6 μm^2; in [2] (10 μM), less than 9 μm^2. In data set [2], the “activity against EEFs (in words)” value is “confirmed as active”. Also, the IC50 came out at 1.16 µM in data set [2], 0.317 ± 0.06 µM in data set [6] and 6.1 ± 1.9 µM in data set [7].
With `CC[C@@H](C(=O)[C@@H](C)[C@@H](O)[C@H](C)CCc1ccc(C)c(O)c1C(=O)O)[C@H]1O[C@](CC)([C@H]2CC[C@](O)(CC)[C@H](C)O2)C[C@@H]1C` [Lasalocid], the “efficacy” value in [2] (1 μM) is reported as “remained active later in EEF development”. Also, the Median parasite area in [2] (1 μM) and in data set [2] (10 μM) was less than 9 μm^2 each time. The “activity against EEFs (in words)” value in data set [2] is recorded as “confirmed as active”. For the same compound, the IC50 is 0.037 ± 0.02 µM in [2], 0.05 ± 0.008 µM in [6] and 3.9 ± 1.4 µM in [7].
For the compound `CO[C@@H]1C(=O)CC[C@]2(CO2)[C@@]1(O)[C@@]1(C)O[C@@H]1CC=C(C)C` [Ovalicin], the Median parasite area in data set [2] (1 μM) came to 35.1±3.1 μm^2; in data set [2] (10 μM), 19.1±0.9 μm^2. Also, the “effect on the infection ratio” value in data set [2] (Fig. 1E) is listed as “no drug effect is seen; also recorded: no measurable effect”. Besides, the “activity against EEFs (in words)” value in data set [2] is “confirmed as active”. The IC50 in [2] was 0.0007 ± 0.0003 µM; in data set [6] it was greater than 10 µM; in data set [7] it was greater than 10 µM.
Turning to `C[C@@H]1CC[C@H]2[C@@H](C)C(=O)O[C@@H]3O[C@@]4(C)CC[C@@H]1[C@]32OO4` [Artemisinin], in data set [2], the “activity against EEFs (in words)” value is “inactive”. For the same compound, the IC50 in [2] is greater than 10 µM; in data set [6], 0.0033 ± 0.0004 µM; in data set [7] it was greater than 10 µM.
On to `COc1ccc2cc3[n+](cc2c1OC)CCc1cc2c(cc1-3)OCO2` [Berberine], for which the Median parasite area in [2] (1 μM) was 46.4±7.0 μm^2; in data set [2] (10 μM), 22.4±2.3 μm^2. The “activity against EEFs (in words)” value in data set [2] is given as “confirmed as active”. For the same compound, the results for the IC50 in data set [2], in data set [6] and in data set [7] were 0.224 ± 0.152 µM, 0.117 ± 0.009 µM and 2.6 ± 0.5 µM, respectively.

Source of the values: PMC3473092 (Science (New York, N.Y.), 2011).
